Values quoted from earlier work as cited in PMC5613053 (Investigational New Drugs, 2017).

Key:
MV4–11 cells = conditions: read-out: Concentration inhibiting growth of MV4–11 cells; cited from earlier work
MV4–11-luc cells = test system: MV4–11-luc cells; parameters: method as in PMID 24046014; conditions: maximum tolerated dose; cited from earlier work

CC1(COc2ccc3c(c2)ncn3-c2ccc3cccc(N4CCC(N)CC4)c3n2)COC1 [crenolanib]
IC50 (MV4–11 cells): 1.3 nM
Efficacy in xenograft model (MV4–11-luc cells): limited efficacy
